Results published in patent US6756368B1, “Use of cobalt chelates for treating or preventing virus infection” (The Trustees of Columbia University in the City of New York, priority 1999, dated 2004).

Tests used:
HSV = conditions: cited from earlier work
HSV-1 = assay: Fractionation and in situ localization of virus DNA; type: cell-based, HSV-1 Glasgow strain 17; conditions: 100 μg/ml cycloheximide, 1 hpi

Molecule	HSV attachment / virus binding (HSV)	cell-to-cell spread of HSV (HSV)	virus DNA associated with the nuclear fraction versus no drug control (HSV-1)	step inhibited instead of binding (HSV)
Cc1ccc(C(=O)Nc2ccc(S(=O)(=O)O)c3cc(S(=O)(=O)O)cc(S(=O)(=O)O)c23)cc1NC(=O)c1cccc(NC(=O)Nc2cccc(C(=O)Nc3cc(C(=O)Nc4ccc(S(=O)(=O)O)c5cc(S(=O)(=O)O)cc(S(=O)(=O)O)c45)ccc3C)c2)c1 [Sumarin]	able to block HSV attachment	able to inhibit cell-to-cell spread	–	–
C[C@@H]1C[C@@H]([C@H](O)CC2CC(=O)NC(=O)C2)C(=O)[C@@H](C)C1 [cycloheximide, reference compound]	–	–	no effect on the amount of virus DNA associated with the nuclear fraction	–
CCCCCCCCCCCCCCCCCCCCCCO [n-docosanol]	does not inhibit virus binding	–	–	fusion of the virus envelope with the cell's plasma membrane
Heparin	can block attachment	–	–	–
